Columns and labels:
Type in all cases: in vivo
[1] = test system: rat serum; test: Biochemical profiling (LC-MS) of rat serum after a single dose of acetaminophen; parameters: key to Pipecolate significantly changed / Citrulline significantly changed: (x = significantly changed)
[2] = test system: human serum; test: Biochemical profiling of human serum after single oral dose of APAP, correlated with rat; parameters: key: X: Biochemicals significantly changed by APAP in both rat and human biological samples; conditions: humans single oral dose of 4 g APAP
Description: (§1) Six healthy human volunteers received a standardized soy shake diet for 72 hours. Each volunteer received a single oral dose of 4 g APAP (˜50 mg/kg). Serum and urine were sampled at 0, 6, 18, 24, 48, 72 and 96 hours (urine collected between these times). BCP analysis was carried out as described in Example 1.

[3] = test system: human urine; test: Biochemical profiling of human urine after single oral dose of APAP, correlated with rat; parameters: key: X: Biochemicals significantly changed by APAP in both rat and human biological samples; conditions: humans single oral dose of 4 g APAP
Description: as §1

[4] = test system: rat urine; test: Biochemical profiling (LC-MS) of rat urine after a single dose of acetaminophen; parameters: key to Pipecolate significantly changed / Ribose significantly changed / Tyrosine significantly changed: (x = significantly changed)

Citrulline significantly changed [1]: x
Pipecolate significantly changed [1]: x
Peak13 presence in serum ([1]; study of Example 1): not observed
responses of aspartic acid, Peak12, glutamine, Peak20, succinic acid and Peak26 versus control (baseline) ([1]; study of Example 1): significant variation from control
Citrulline significantly changed by APAP in both rat and human [2]: X
Creatinine significantly changed by APAP in both rat and human [2]: X
Glutamate significantly changed by APAP in both rat and human [2]: X
Glutamine significantly changed by APAP in both rat and human [2]: X
Guanosine significantly changed by APAP in both rat and human [2]: X
Homoserine significantly changed by APAP in both rat and human [2]: X
Hypoxanthine significantly changed by APAP in both rat and human [2]: X
Ornithine significantly changed by APAP in both rat and human [2]: X
Phenylalanine significantly changed by APAP in both rat and human [2]: X
Pipecolate significantly changed by APAP in both rat and human [2]: X
2-Oxoglutarate significantly changed by APAP in both rat and human [3]: X
5-Hyroxytryptophan significantly changed by APAP in both rat and human [3]: X
Cytosine significantly changed by APAP in both rat and human [3]: X
Glutamate significantly changed by APAP in both rat and human [3]: X
Lysine significantly changed by APAP in both rat and human [3]: X
Serine significantly changed by APAP in both rat and human [3]: X
Pipecolate significantly changed [4]: x
Ribose significantly changed [4]: x
Tyrosine significantly changed [4]: x
response for Peak13 in urine versus control ([4]; study of Example 1): did not vary significantly from control
responses of aspartic acid, Peak12, glutamine, Peak20, succinic acid and Peak26 versus control (baseline) ([4]; study of Example 1): significant variation from control
SMILES: CC(=O)Nc1ccc(O)cc1 [acetaminophen]

Source: US20080213768A1, “Identification and use of biomarkers for non-invasive and early detection of liver injury” (priority 2006, published 2008)
